Experimental data as given in patent publication US20240065988A1, “COMBINED USE OF KETAMINE AND RETIGABINE (EZOGABINE) FOR THE TREATMENT OF PSYCHIATRIC DISORDERS” (Yeda Research and Development Co. Ltd., priority 2021, published 2024).

System: single cells from the ventral hippocampus (vHipp)
Experiment: Single-cell RNA sequencing (scRNA-seq) of the ventral hippocampus after ketamine treatment; differential expression per cell type; on Mean-Ket: unit not given here
[1] = Astrocytes, ketamine 10 mg/kg i.p.
[2] = Astrocytes, ketamine 10 mg/kg i.p. vs saline
[3] = Endothelial, ketamine 10 mg/kg i.p.
[4] = Endothelial, ketamine 10 mg/kg i.p. vs saline

CNC1(c2ccccc2Cl)CCCCC1=O (racemic) [ketamine, (R,S)-ketamine]
Change (Aarsd1, Glut Neurons): Down
Mean-Ket (Aarsd1, Glut Neurons): 1.682
logFC (Aarsd1, Glut Neurons): −0.119
Change (Acad9, Glut Neurons): Up
Mean-Ket (Acad9, Glut Neurons): 1.372
logFC (Acad9, Glut Neurons): 0.210
Change (Aire, Glut Neurons): Down
Mean-Ket (Aire, Glut Neurons): 2.157
logFC (Aire, Glut Neurons): −0.116
Change (Akap5, Astrocytes): Down
Mean-Ket (Akap5, Astrocytes): 4.005
logFC (Akap5, Astrocytes): −0.219
Aire Mean-Ket [1]: 2.361
Aktip Mean-Ket [1]: 1.656
Atg2a Mean-Ket [1]: 1.418
Calm1 Mean-Ket [1]: 2.021
Calm2 Mean-Ket [1]: 1.730
Capza2 Mean-Ket [1]: 3.001
Cars2 Mean-Ket [1]: 2.703
Cep89 Mean-Ket [1]: 2.822
Cox7a2 Mean-Ket [1]: 1.052
Elp6 Mean-Ket [1]: 1.701
Fam193a Mean-Ket [1]: 2.684
Gje1 Mean-Ket [1]: 0.961
Gmeb1 Mean-Ket [1]: 2.962
Hadhb Mean-Ket [1]: 1.956
Haus8 Mean-Ket [1]: 1.269
Lztr1 Mean-Ket [1]: 1.556
Mettl3 Mean-Ket [1]: 2.842
Mrp19 Mean-Ket [1]: 2.904
Mterf3 Mean-Ket [1]: 1.289
Nop58 Mean-Ket [1]: 2.828
P3h3 Mean-Ket [1]: 2.495
Parp1 Mean-Ket [1]: 2.675
Polr2c Mean-Ket [1]: 2.613
Ppan Mean-Ket [1]: 2.916
Rfc2 Mean-Ket [1]: 0.929
Rpap1 Mean-Ket [1]: 1.265
Sec23ip Mean-Ket [1]: 2.886
Slc23a1 Mean-Ket [1]: 2.421
Snf8 Mean-Ket [1]: 2.945
Sumf2 Mean-Ket [1]: 1.532
Tecr Mean-Ket [1]: 1.562
Tuba1b Mean-Ket [1]: 1.065
Tubb2a Mean-Ket [1]: 0.960
Uba2 Mean-Ket [1]: 1.413
Vps8 Mean-Ket [1]: 2.087
Zcchc4 Mean-Ket [1]: 0.999
Aire Change [2]: Down
Aire logFC [2]: −0.106
Aktip Change [2]: Down
Aktip logFC [2]: −0.119
Atg2a Change [2]: Down
Atg2a logFC [2]: −0.105
Calm1 Change [2]: Down
Calm1 logFC [2]: −0.155
Calm2 Change [2]: Down
Calm2 logFC [2]: −0.130
Capza2 Change [2]: Down
Capza2 logFC [2]: −0.082
Cars2 Change [2]: Down
Cars2 logFC [2]: −0.090
Cep89 Change [2]: Down
Cep89 logFC [2]: −0.075
Cox7a2 Change [2]: Down
Cox7a2 logFC [2]: −0.144
Elp6 Change [2]: Down
Elp6 logFC [2]: −0.124
Fam193a Change [2]: Down
Fam193a logFC [2]: −0.088
Gje1 Change [2]: Down
Gje1 logFC [2]: −0.108
Gmeb1 Change [2]: Down
Gmeb1 logFC [2]: −0.074
Hadhb Change [2]: Down
Hadhb logFC [2]: −0.103
Haus8 Change [2]: Down
Haus8 logFC [2]: −0.116
Lztr1 Change [2]: Down
Lztr1 logFC [2]: −0.130
Mettl3 Change [2]: Down
Mettl3 logFC [2]: −0.077
Mrp19 Change [2]: Down
Mrp19 logFC [2]: −0.074
Mterf3 Change [2]: Down
Mterf3 logFC [2]: −0.125
Nop58 Change [2]: Down
Nop58 logFC [2]: −0.094
P3h3 Change [2]: Down
P3h3 logFC [2]: −0.092
Parp1 Change [2]: Down
Parp1 logFC [2]: −0.079
Polr2c Change [2]: Down
Polr2c logFC [2]: −0.091
Ppan Change [2]: Down
Ppan logFC [2]: −0.074
Rfc2 Change [2]: Down
Rfc2 logFC [2]: −0.121
Rpap1 Change [2]: Down
Rpap1 logFC [2]: −0.125
Sec23ip Change [2]: Down
Sec23ip logFC [2]: −0.086
Slc23a1 Change [2]: Down
Slc23a1 logFC [2]: −0.099
Snf8 Change [2]: Down
Snf8 logFC [2]: −0.074
Sumf2 Change [2]: Down
Sumf2 logFC [2]: −0.127
Tecr Change [2]: Down
Tecr logFC [2]: −0.242
Tuba1b Change [2]: Down
Tuba1b logFC [2]: −0.115
Tubb2a Change [2]: Down
Tubb2a logFC [2]: −0.113
Uba2 Change [2]: Down
Uba2 logFC [2]: −0.113
Vps8 Change [2]: Down
Vps8 logFC [2]: −0.120
Zcchc4 Change [2]: Down
Zcchc4 logFC [2]: −0.112
Change (Atp5a1, Glut Neurons): Down
Mean-Ket (Atp5a1, Glut Neurons): 0.832
logFC (Atp5a1, Glut Neurons): −0.162
Change (Atp5j2, Glut Neurons): Down
Mean-Ket (Atp5j2, Glut Neurons): 0.851
logFC (Atp5j2, Glut Neurons): −0.169
Change (Atp5j, Glut Neurons): Down
Mean-Ket (Atp5j, Glut Neurons): 1.199
logFC (Atp5j, Glut Neurons): −0.230
Change (Atp6v0e2, Astrocytes): Down
Mean-Ket (Atp6v0e2, Astrocytes): 1.529
logFC (Atp6v0e2, Astrocytes): −0.138
Change (Atp5h, Glut Neurons): Down
Mean-Ket (Atp5h, Glut Neurons): 1.341
logFC (Atp5h, Glut Neurons): −0.231
Change (Atxn2, Glut Neurons): Down
Mean-Ket (Atxn2, Glut Neurons): 1.752
logFC (Atxn2, Glut Neurons): −0.131
Change (Cars2, Glut Neurons): Down
Mean-Ket (Cars2, Glut Neurons): 2.514
logFC (Cars2, Glut Neurons): −0.095
Change (Casc4, Glut Neurons): Down
Mean-Ket (Casc4, Glut Neurons): 3.269
logFC (Casc4, Glut Neurons): −0.109
Change (Ccdc62, Glut Neurons): Down
Mean-Ket (Ccdc62, Glut Neurons): 1.370
logFC (Ccdc62, Glut Neurons): −0.131
Change (Cep89, Glut Neurons): Down
Mean-Ket (Cep89, Glut Neurons): 2.584
logFC (Cep89, Glut Neurons): −0.104
Change (Chn1, Glut Neurons): Down
Mean-Ket (Chn1, Glut Neurons): 1.219
logFC (Chn1, Glut Neurons): −0.192
Change (Chpt1, Glut Neurons): Down
Mean-Ket (Chpt1, Glut Neurons): 2.768
logFC (Chpt1, Glut Neurons): −0.092
Change (Cox6b1, Glut Neurons): Down
Mean-Ket (Cox6b1, Glut Neurons): 1.063
logFC (Cox6b1, Glut Neurons): −0.161
Change (Cpe, Glut Neurons): Down
Mean-Ket (Cpe, Glut Neurons): 1.060
logFC (Cpe, Glut Neurons): −0.123
Change (Cxcr2, Glut Neurons): Down
Mean-Ket (Cxcr2, Glut Neurons): 2.721
logFC (Cxcr2, Glut Neurons): −0.098
Change (D3Ertd254e, Glut Neurons): Down
Mean-Ket (D3Ertd254e, Glut Neurons): 1.540
logFC (D3Ertd254e, Glut Neurons): −0.179
Change (D6Wsu163e, Glut Neurons): Down
Mean-Ket (D6Wsu163e, Glut Neurons): 2.314
logFC (D6Wsu163e, Glut Neurons): −0.101
Change (Dars, Glut Neurons): Down
Mean-Ket (Dars, Glut Neurons): 1.380
logFC (Dars, Glut Neurons): −0.115
Change (Dhx30, Glut Neurons): Down
Mean-Ket (Dhx30, Glut Neurons): 1.310
logFC (Dhx30, Glut Neurons): −0.133
Change (Dpp10, Glut Neurons): Up
Mean-Ket (Dpp10, Glut Neurons): 1.344
logFC (Dpp10, Glut Neurons): 0.216
Change (Eef1akmt3, Astrocytes): Up
Mean-Ket (Eef1akmt3, Astrocytes): 1.918
logFC (Eef1akmt3, Astrocytes): 0.336
Change (Eif4a2, Glut Neurons): Down
Mean-Ket (Eif4a2, Glut Neurons): 1.524
logFC (Eif4a2, Glut Neurons): −0.234
Change (Enah, Glut Neurons): Down
Mean-Ket (Enah, Glut Neurons): 2.212
logFC (Enah, Glut Neurons): −0.108
Akap5 Mean-Ket [3]: 3.573
Eef1akmt3 Mean-Ket [3]: 1.735
Ilf2 Mean-Ket [3]: 1.206
Lrrc17 Mean-Ket [3]: 2.859
Saa3 Mean-Ket [3]: 1.407
Slco1a4 Mean-Ket [3]: 1.231
Vps8 Mean-Ket [3]: 1.667
Akap5 Change [4]: Down
Akap5 logFC [4]: −0.447
Eef1akmt3 Change [4]: Up
Eef1akmt3 logFC [4]: 0.511
Ilf2 Change [4]: Up
Ilf2 logFC [4]: 0.361
Lrrc17 Change [4]: Down
Lrrc17 logFC [4]: −0.407
Saa3 Change [4]: Up
Saa3 logFC [4]: 0.366
Slco1a4 Change [4]: Up
Slco1a4 logFC [4]: 0.415
Vps8 Change [4]: Down
Vps8 logFC [4]: −0.398
Change (Exosc5, Glut Neurons): Down
Mean-Ket (Exosc5, Glut Neurons): 1.196
logFC (Exosc5, Glut Neurons): −0.109
Change (Fam193a, Glut Neurons): Down
Mean-Ket (Fam193a, Glut Neurons): 2.472
logFC (Fam193a, Glut Neurons): −0.101
Change (Fgd4, Glut Neurons): Up
Mean-Ket (Fgd4, Glut Neurons): 2.397
logFC (Fgd4, Glut Neurons): 0.144
Change (Foxr1, Glut Neurons): Down
Mean-Ket (Foxr1, Glut Neurons): 2.380
logFC (Foxr1, Glut Neurons): −0.113
Change (Fubp1, Glut Neurons): Down
Mean-Ket (Fubp1, Glut Neurons): 2.828
logFC (Fubp1, Glut Neurons): −0.093
Change (Furin, Glut Neurons): Down
Mean-Ket (Furin, Glut Neurons): 1.335
logFC (Furin, Glut Neurons): −0.132
Change (Gapdh-ps15, Astrocytes): Down
Mean-Ket (Gapdh-ps15, Astrocytes): 1.333
logFC (Gapdh-ps15, Astrocytes): −0.157
Change (Gclm, Glut Neurons): Down
Mean-Ket (Gclm, Glut Neurons): 0.984
logFC (Gclm, Glut Neurons): −0.113
Change (Gmeb1, Glut Neurons): Down
Mean-Ket (Gmeb1, Glut Neurons): 2.782
logFC (Gmeb1, Glut Neurons): −0.087
Change (Golga3, Astrocytes): Down
Mean-Ket (Golga3, Astrocytes): 1.515
logFC (Golga3, Astrocytes): −0.136
Change (H2-T23, Glut Neurons): Down
Mean-Ket (H2-T23, Glut Neurons): 1.757
logFC (H2-T23, Glut Neurons): −0.173
Change (Hook3, Glut Neurons): Down
Mean-Ket (Hook3, Glut Neurons): 2.556
logFC (Hook3, Glut Neurons): −0.089
Change (Hsd3b2, Glut Neurons): Up
Mean-Ket (Hsd3b2, Glut Neurons): 1.162
logFC (Hsd3b2, Glut Neurons): 0.193
Change (Il17ra, Glut Neurons): Up
Mean-Ket (Il17ra, Glut Neurons): 1.490
logFC (Il17ra, Glut Neurons): 0.252
Change (Ilf2, Astrocytes): Up
Mean-Ket (Ilf2, Astrocytes): 1.350
logFC (Ilf2, Astrocytes): 0.295
Change (Ipo7, Glut Neurons): Down
Mean-Ket (Ipo7, Glut Neurons): 1.687
logFC (Ipo7, Glut Neurons): −0.119
Change (Kcnj16, Glut Neurons): Up
Mean-Ket (Kcnj16, Glut Neurons): 1.052
logFC (Kcnj16, Glut Neurons): 0.227
Change (Kif3a, Glut Neurons): Down
Mean-Ket (Kif3a, Glut Neurons): 1.198
logFC (Kif3a, Glut Neurons): −0.141
Change (Loxl2, Glut Neurons): Down
Mean-Ket (Loxl2, Glut Neurons): 2.605
logFC (Loxl2, Glut Neurons): −0.098
Change (Lrrc17, Astrocytes): Down
Mean-Ket (Lrrc17, Astrocytes): 3.291
logFC (Lrrc17, Astrocytes): −0.192
Change (Lsm8, Glut Neurons): Down
